Tests used:
Type in all cases: cell-based, mouse
[1] = tested on: α7 integrin (LacZ reporter in α7βgal+/− myoblasts); test: Myoblast α7+/LacZ integrin FDG assay (Burkin assay in myoblasts, 96-well); conditions: α7+/LacZ myoblasts, 96-well
[2] = tested on: α7 integrin (LacZ reporter in α7+/LacZ myotubes); test: Myotube α7 integrin FDG assay (Burkin assay in myotubes, 96-well); conditions: myotubes
[3] = tested on: β-galactosidase in CMV-LacZ C2C12 myoblasts; test: CMV-LacZ secondary screen in C2C12 myoblasts (β-Gal stabilizing assay); conditions: CMV-LacZ C2C12 myoblasts
Procedure, shortened: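 β-gal stabilization was measured in C2C12 myoblasts or myotubes stably transfected with a CMV-driven LacZ construct, using the FDG β-gal assay. Compounds were tested in dose-response at 0.5, 1, 5, 10, 20 and 40 μM, with two replicates per point.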

[4] = tested on: β-galactosidase in CMV-LacZ C2C12 myotubes; test: CMV-LacZ secondary screen in C2C12 myotubes (β-Gal stabilizing assay); conditions: C2C12 CMV-LacZ myotubes, fold relative to DMSO
Procedure, shortened: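 CMV-LacZ C2C12 line (clonal, FDG-screened); myoblasts/myotubes dosed 0.5–40 μM (0.5, 1, 5, 10, 20, 40 μM); n=2 per point; β-gal stabilization read-out.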

With `CN(CC(=O)Nc1cccc(F)c1)C(=O)c1ccc(-c2ccc(Cl)cc2)o1` [MLS001078811-01] the “Burkin Assay in Myoblasts, signal relative to DMSO” value ([1]; 0.5 uM) was 0.9376, the “Burkin Assay in Myoblasts, signal relative to DMSO” value ([1]; 1 uM) was 0.9926 and the “Burkin Assay in Myoblasts, signal relative to DMSO” value ([1]; 5 uM) was 0.9583. The “Burkin Assay in Myoblasts, signal relative to DMSO” value ([1]; 10 uM) was 0.891, the “Burkin Assay in Myoblasts, signal relative to DMSO” value ([1]; 20 uM) was 1.681 and the “Burkin Assay in Myoblasts, signal relative to DMSO” value ([1]; 40 uM) was 0.7411. For the same compound, the “Burkin Assay in Myotubes, α7 integrin LacZ reporter signal relative to DMSO” value ([2]; 0.5 uM) was 0.9163, the “Burkin Assay in Myotubes, α7 integrin LacZ reporter signal relative to DMSO” value ([2]; 1 uM) was 0.9064 and the “Burkin Assay in Myotubes, α7 integrin LacZ reporter signal relative to DMSO” value ([2]; 5 uM) was 0.9816. For the same compound, the “Burkin Assay in Myotubes, α7 integrin LacZ reporter signal relative to DMSO” value ([2]; 10 uM) was 0.8773, the “Burkin Assay in Myotubes, α7 integrin LacZ reporter signal relative to DMSO” value ([2]; 20 uM) was 0.6307 and the “Burkin Assay in Myotubes, α7 integrin LacZ reporter signal relative to DMSO” value ([2]; 40 uM) was 0.4598. For the same compound, the “CMV-LACZ in Myoblasts (β-galactosidase activity relative to DMSO)” value ([3]; 0.5 uM) was 1.2397, the “CMV-LACZ in Myoblasts (β-galactosidase activity relative to DMSO)” value ([3]; 1 uM) was 1.2290 and the “CMV-LACZ in Myoblasts (β-galactosidase activity relative to DMSO)” value ([3]; 5 uM) was 0.7927. For the same compound, the “CMV-LACZ in Myoblasts (β-galactosidase activity relative to DMSO)” value ([3]; 10 uM) was 0.6873, the “CMV-LACZ in Myoblasts (β-galactosidase activity relative to DMSO)” value ([3]; 20 uM) was 0.8393 and the “CMV-LACZ in Myoblasts (β-galactosidase activity relative to DMSO)” value ([3]; 40 uM) was 0.9014. The “CMV-LACZ in Myotubes, signal relative to DMSO” value ([4]; 0.5 uM) was 0.8486, the “CMV-LACZ in Myotubes, signal relative to DMSO” value ([4]; 1 uM) was 0.9086 and the “CMV-LACZ in Myotubes, signal relative to DMSO” value ([4]; 5 uM) was 1.1571. For the same compound, the “CMV-LACZ in Myotubes, signal relative to DMSO” value ([4]; 10 uM) was 0.9981, the “CMV-LACZ in Myotubes, signal relative to DMSO” value ([4]; 20 uM) was 1.0510 and the “CMV-LACZ in Myotubes, signal relative to DMSO” value ([4]; 40 uM) was 0.6710.
With `COc1cccc(C(=O)COc2ccc3ccc(=O)oc3c2)c1` [MLS000677675-01] the “Burkin Assay in Myoblasts, signal relative to DMSO” value ([1]; 0.5 uM) was 1.093, the “Burkin Assay in Myoblasts, signal relative to DMSO” value ([1]; 1 uM) was 1.061 and the “Burkin Assay in Myoblasts, signal relative to DMSO” value ([1]; 5 uM) was 0.9873. For the same compound, the “Burkin Assay in Myoblasts, signal relative to DMSO” value ([1]; 10 uM) was 1.028, the “Burkin Assay in Myoblasts, signal relative to DMSO” value ([1]; 20 uM) was 1.004 and the “Burkin Assay in Myoblasts, signal relative to DMSO” value ([1]; 40 uM) was 0.9554. For the same compound, the “Burkin Assay in Myotubes, α7 integrin LacZ reporter signal relative to DMSO” value ([2]; 0.5 uM) was 1.278, the “Burkin Assay in Myotubes, α7 integrin LacZ reporter signal relative to DMSO” value ([2]; 1 uM) was 1.205 and the “Burkin Assay in Myotubes, α7 integrin LacZ reporter signal relative to DMSO” value ([2]; 5 uM) was 1.081. The “Burkin Assay in Myotubes, α7 integrin LacZ reporter signal relative to DMSO” value ([2]; 10 uM) was 1.044, the “Burkin Assay in Myotubes, α7 integrin LacZ reporter signal relative to DMSO” value ([2]; 20 uM) was 0.6675 and the “Burkin Assay in Myotubes, α7 integrin LacZ reporter signal relative to DMSO” value ([2]; 40 uM) was 0.6873. For the same compound, the “CMV-LACZ in Myoblasts (β-galactosidase activity relative to DMSO)” value ([3]; 0.5 uM) was 1.0343, the “CMV-LACZ in Myoblasts (β-galactosidase activity relative to DMSO)” value ([3]; 1 uM) was 1.1214 and the “CMV-LACZ in Myoblasts (β-galactosidase activity relative to DMSO)” value ([3]; 5 uM) was 0.9905. For the same compound, the “CMV-LACZ in Myoblasts (β-galactosidase activity relative to DMSO)” value ([3]; 10 uM) was 1.0373, the “CMV-LACZ in Myoblasts (β-galactosidase activity relative to DMSO)” value ([3]; 20 uM) was 1.0763 and the “CMV-LACZ in Myoblasts (β-galactosidase activity relative to DMSO)” value ([3]; 40 uM) was 1.1578. The “CMV-LACZ in Myotubes, signal relative to DMSO” value ([4]; 0.5 uM) was 0.8619, the “CMV-LACZ in Myotubes, signal relative to DMSO” value ([4]; 1 uM) was 0.9962 and the “CMV-LACZ in Myotubes, signal relative to DMSO” value ([4]; 5 uM) was 1.0578. The “CMV-LACZ in Myotubes, signal relative to DMSO” value ([4]; 10 uM) was 1.0091, the “CMV-LACZ in Myotubes, signal relative to DMSO” value ([4]; 20 uM) was 0.9918 and the “CMV-LACZ in Myotubes, signal relative to DMSO” value ([4]; 40 uM) was 1.2494.
`Nc1ncnc(N2CCc3ccccc32)c1[N+](=O)[O-]` [MLS000683232-01] was tested, and the “Burkin Assay in Myoblasts, signal relative to DMSO” value ([1]; 0.5 uM) was 1.234, the “Burkin Assay in Myoblasts, signal relative to DMSO” value ([1]; 1 uM) was 1.199 and the “Burkin Assay in Myoblasts, signal relative to DMSO” value ([1]; 5 uM) was 1.6445. For the same compound, the “Burkin Assay in Myoblasts, signal relative to DMSO” value ([1]; 10 uM) was 1.778, the “Burkin Assay in Myoblasts, signal relative to DMSO” value ([1]; 20 uM) was 1.821 and the “Burkin Assay in Myoblasts, signal relative to DMSO” value ([1]; 40 uM) was 1.654. For the same compound, the “Burkin Assay in Myotubes, α7 integrin LacZ reporter signal relative to DMSO” value ([2]; 0.5 uM) was 1.136, the “Burkin Assay in Myotubes, α7 integrin LacZ reporter signal relative to DMSO” value ([2]; 1 uM) was 1.2778 and the “Burkin Assay in Myotubes, α7 integrin LacZ reporter signal relative to DMSO” value ([2]; 5 uM) was 1.272. For the same compound, the “Burkin Assay in Myotubes, α7 integrin LacZ reporter signal relative to DMSO” value ([2]; 10 uM) was 1.448, the “Burkin Assay in Myotubes, α7 integrin LacZ reporter signal relative to DMSO” value ([2]; 20 uM) was 1.4149 and the “Burkin Assay in Myotubes, α7 integrin LacZ reporter signal relative to DMSO” value ([2]; 40 uM) was 1.32. The “MT FOLD INCREASE” value ([2]; maximum response) was 1.7 fold, the EC50 ([2]; nonlinear regression of dose-response curves, read-out: EC50 α7+/LacZ MT) was 5.3 µM and the “CMV-LACZ in Myoblasts (β-galactosidase activity relative to DMSO)” value ([3]; 0.5 uM) was 0.8043. The “CMV-LACZ in Myoblasts (β-galactosidase activity relative to DMSO)” value ([3]; 1 uM) was 0.7131, the “CMV-LACZ in Myoblasts (β-galactosidase activity relative to DMSO)” value ([3]; 5 uM) was 0.5638 and the “CMV-LACZ in Myoblasts (β-galactosidase activity relative to DMSO)” value ([3]; 10 uM) was 0.5224. For the same compound, the “CMV-LACZ in Myoblasts (β-galactosidase activity relative to DMSO)” value ([3]; 20 uM) was 0.6119, the “CMV-LACZ in Myoblasts (β-galactosidase activity relative to DMSO)” value ([3]; 40 uM) was 0.8237 and the “CMV-LACZ in Myotubes, signal relative to DMSO” value ([4]; 0.5 uM) was 0.8200. For the same compound, the “CMV-LACZ in Myotubes, signal relative to DMSO” value ([4]; 1 uM) was 0.7752, the “CMV-LACZ in Myotubes, signal relative to DMSO” value ([4]; 5 uM) was 0.8743 and the “CMV-LACZ in Myotubes, signal relative to DMSO” value ([4]; 10 uM) was 1.0086. For the same compound, the “CMV-LACZ in Myotubes, signal relative to DMSO” value ([4]; 20 uM) was 0.8835 and the “CMV-LACZ in Myotubes, signal relative to DMSO” value ([4]; 40 uM) was 0.8365.

Source: patent publication US9980943B2, “Methods of treating muscular dystrophy” (BOARD OF REGENTS OF THE NEVADA SYSTEM OF HIGHER EDUCATION, …, priority 2013, dated 2018)
